The record followed here is ChEMBL document CHEMBL3396955, “Discovery of non-electrophilic capsaicinoid-type TRPA1 ligands” (Bioorg Med Chem Lett, 2015).

A value given as a limit tells only on which side of the number the result lay.

Holding throughout (assay type): cell-based
Test [1] deals with T1, Transient receptor potential cation channel subfamily V member 1 (Homo sapiens, UniProt Q8NER1). Briefly: Agonist activity at human recombinant TRPV1 expressed in HEK293 cells assessed as Ca2+ influx by Fluo-4 dye based assay relative to 4 uM ionomycin.
T1 sequence (Q8NER1 whole entry): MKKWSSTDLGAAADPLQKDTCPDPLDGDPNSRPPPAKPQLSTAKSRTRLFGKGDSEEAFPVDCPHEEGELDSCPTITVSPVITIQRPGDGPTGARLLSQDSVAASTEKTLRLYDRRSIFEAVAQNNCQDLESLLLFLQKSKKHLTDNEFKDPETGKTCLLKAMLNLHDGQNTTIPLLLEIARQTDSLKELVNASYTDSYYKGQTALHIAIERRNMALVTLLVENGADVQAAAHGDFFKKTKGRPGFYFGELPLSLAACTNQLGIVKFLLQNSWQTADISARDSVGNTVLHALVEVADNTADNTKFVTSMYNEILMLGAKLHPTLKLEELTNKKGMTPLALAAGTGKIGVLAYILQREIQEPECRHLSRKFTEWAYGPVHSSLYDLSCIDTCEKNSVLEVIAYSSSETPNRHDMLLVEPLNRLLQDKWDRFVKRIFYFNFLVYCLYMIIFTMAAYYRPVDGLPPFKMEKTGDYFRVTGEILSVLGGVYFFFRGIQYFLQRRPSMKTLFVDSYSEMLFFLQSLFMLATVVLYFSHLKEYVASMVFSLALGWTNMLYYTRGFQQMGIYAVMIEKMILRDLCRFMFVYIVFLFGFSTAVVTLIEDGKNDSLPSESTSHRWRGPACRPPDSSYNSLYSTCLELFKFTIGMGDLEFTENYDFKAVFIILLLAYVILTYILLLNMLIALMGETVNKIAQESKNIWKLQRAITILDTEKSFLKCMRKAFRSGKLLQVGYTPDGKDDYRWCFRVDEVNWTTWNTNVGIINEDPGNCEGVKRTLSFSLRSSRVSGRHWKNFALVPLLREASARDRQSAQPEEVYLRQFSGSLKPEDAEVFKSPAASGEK
Test [2] concerns the target T1, Transient receptor potential cation channel subfamily V member 1. Briefly: Agonist activity at human recombinant TRPV1 expressed in HEK293 cells assessed as Ca2+ influx by Fluo-4 dye based assay.
Test [3] has the same target. Briefly: Antagonist activity against human recombinant TRPV1 expressed in HEK293 cells assessed as inhibition of capsaicin-induced Ca2+ influx pre-treated 5 mins before capsaicin addition by Fluo-4 dye based assay.
Test [4] has as its target Transient receptor potential cation channel subfamily A member 1 (Rattus norvegicus) (UniProt Q6RI86). Briefly: Agonist activity at rat recombinant TRPA1 expressed in HEK293 cells assessed as Ca2+ influx by Fluo-4 dye based assay relative to 100 uM AITC.
Test [5] has as its target T2, Transient receptor potential cation channel subfamily A member 1 (Rattus norvegicus, UniProt Q6RI86). Briefly: Agonist activity at rat recombinant TRPA1 expressed in HEK293 cells assessed as Ca2+ influx by Fluo-4 dye based assay.
The target of test [6] is T2, Transient receptor potential cation channel subfamily A member 1. Briefly: Antagonist activity against rat recombinant TRPA1 expressed in HEK293 cells assessed as inhibition of AITC-induced Ca2+ influx pre-treated 5 mins before capsaicin addition by Fluo-4 dye based assay.

Chain of Transient receptor potential cation channel subfamily A member 1 (Rattus norvegicus) (Q6RI86 whole entry): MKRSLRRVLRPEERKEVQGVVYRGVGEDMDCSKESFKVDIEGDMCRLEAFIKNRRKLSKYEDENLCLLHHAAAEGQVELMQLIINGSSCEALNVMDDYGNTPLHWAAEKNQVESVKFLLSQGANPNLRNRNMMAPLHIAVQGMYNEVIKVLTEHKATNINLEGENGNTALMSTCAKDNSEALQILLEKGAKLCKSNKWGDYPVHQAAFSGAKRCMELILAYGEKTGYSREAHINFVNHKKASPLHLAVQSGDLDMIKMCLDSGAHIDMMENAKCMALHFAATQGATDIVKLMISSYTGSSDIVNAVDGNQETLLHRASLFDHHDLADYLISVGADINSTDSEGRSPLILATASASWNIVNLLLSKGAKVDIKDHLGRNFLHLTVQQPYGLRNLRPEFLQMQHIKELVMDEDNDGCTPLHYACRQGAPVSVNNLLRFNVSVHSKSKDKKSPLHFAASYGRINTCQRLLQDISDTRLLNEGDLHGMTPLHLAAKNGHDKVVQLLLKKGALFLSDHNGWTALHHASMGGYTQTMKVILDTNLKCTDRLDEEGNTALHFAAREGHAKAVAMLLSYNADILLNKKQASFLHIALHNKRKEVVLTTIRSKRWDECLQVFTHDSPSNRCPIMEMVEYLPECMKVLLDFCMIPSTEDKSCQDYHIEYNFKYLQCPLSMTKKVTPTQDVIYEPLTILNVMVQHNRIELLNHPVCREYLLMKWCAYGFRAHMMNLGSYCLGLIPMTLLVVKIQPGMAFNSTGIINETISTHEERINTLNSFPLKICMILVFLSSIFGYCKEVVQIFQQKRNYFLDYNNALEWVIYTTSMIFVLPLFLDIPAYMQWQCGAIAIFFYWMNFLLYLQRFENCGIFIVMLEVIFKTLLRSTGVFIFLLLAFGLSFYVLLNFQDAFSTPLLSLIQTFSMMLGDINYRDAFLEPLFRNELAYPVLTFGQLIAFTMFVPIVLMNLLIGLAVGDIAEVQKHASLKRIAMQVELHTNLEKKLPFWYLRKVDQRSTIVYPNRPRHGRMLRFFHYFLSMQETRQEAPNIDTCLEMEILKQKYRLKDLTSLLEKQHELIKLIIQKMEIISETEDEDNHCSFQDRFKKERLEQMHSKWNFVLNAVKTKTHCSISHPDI
T2 sequence (Q6RI86 whole entry): as above

Turning to `CCCCCCCC/C=C\CCCCCCCCn1nnc(-c2ccc(O)c(OC)c2)n1`, the figures for the Efficacy in test [1] and in test [4] were 24.2% and 83.1%, respectively. In addition, the EC50 in test [2] (read-out: EC50) worked out at 5.5 µM; in test [5] (read-out: EC50), 0.83 µM. Also, the IC50 in test [3] is over 100 µM; in test [6] it was 1 µM.
For the compound `C=CCN=C=S`, in test [4], the Efficacy is 38.9%.
As to `COc1cc(CNC(=O)CCCC/C=C/C(C)C)ccc1O` [CAPSAICIN], the EC50 result in test [5] (hek293) was “Not Active”.
`CCCCCCCCCn1nnc(-c2ccc(O)c(OC)c2)n1`: the figures for the Efficacy in test [1] and in test [4] were 28.5% and 65.9%, respectively. Further, the EC50 was found to be 6.9 µM in test [2] (read-out: EC50) and 1.41 µM in test [5] (read-out: EC50). Besides, the IC50 came to 36 µM in test [3] and 1.71 µM in test [6].
On to `CCCCCC[C@@H](O)C/C=C\CCCCCCCCn1nnc(-c2ccc(O)c(OC)c2)n1`, for which the Efficacy in test [1] was 21%; in test [4] it was 62.6%. For the same compound, the EC50 in test [2] (read-out: EC50) was determined as 37.5 µM; in test [5] (read-out: EC50), 36.7 µM. Besides, the results for the IC50 in test [3] and in test [6] were 57.5 µM and 11.2 µM, respectively.
Turning to `CCCCCC[C@H](C/C=C\CCCCCCCCn1nnc(-c2ccc(O)c(OC)c2)n1)OC(=O)Cc1ccccc1`, the Efficacy was under 10% in test [1] and 72.6% in test [4]. In addition, the EC50 entry in test [2] (hek293) was “Not Active”; in test [5] (read-out: EC50), 0.81 µM. Moreover, the IC50 in test [3] was over 100 µM; in test [6], 2.9 µM.
